The numbers were not newly measured in patent US20190000853A1, “ANTIVIRAL 4-(2-AMINO-6-HETEROCYLYL-9H-PURIN-9-YL)-2-CYCLOPENTENE-1 -METHANOL COMPOUNDS” (THE UNIVERSITY OF LIVERPOOL, priority 2015, published 2019), which cites them from elsewhere.

The series has as its system HIV-1. The conditions noted are these: literature comparison with Abacavir.

On to `Nc1nc(N2CCC2)c2ncn([C@H]3C=C[C@@H](CO)C3)c2n1` [ABC1-4], for which the “Antiviral potency relative to Abacavir” value is “equipotent to Abacavir”.
